Literature values in patent US20200113824A1, “DISPENSING CAP CONTAINING A SOLUBILISATE OF A […] ACTIVE AGENT OR DIETARY SUPPLEMENT” (priority 2017, published 2020).

Legend:
P-glycoprotein = P-glycoprotein (Homo sapiens, UniProt P08183)
human CYP3A4 = human CYP3A4 (Homo sapiens, UniProt P08684)
murine gut microbiota = settings: promoting obesity and inflammatory bowel diseases

Sequence of human CYP3A4 (P08684 whole entry): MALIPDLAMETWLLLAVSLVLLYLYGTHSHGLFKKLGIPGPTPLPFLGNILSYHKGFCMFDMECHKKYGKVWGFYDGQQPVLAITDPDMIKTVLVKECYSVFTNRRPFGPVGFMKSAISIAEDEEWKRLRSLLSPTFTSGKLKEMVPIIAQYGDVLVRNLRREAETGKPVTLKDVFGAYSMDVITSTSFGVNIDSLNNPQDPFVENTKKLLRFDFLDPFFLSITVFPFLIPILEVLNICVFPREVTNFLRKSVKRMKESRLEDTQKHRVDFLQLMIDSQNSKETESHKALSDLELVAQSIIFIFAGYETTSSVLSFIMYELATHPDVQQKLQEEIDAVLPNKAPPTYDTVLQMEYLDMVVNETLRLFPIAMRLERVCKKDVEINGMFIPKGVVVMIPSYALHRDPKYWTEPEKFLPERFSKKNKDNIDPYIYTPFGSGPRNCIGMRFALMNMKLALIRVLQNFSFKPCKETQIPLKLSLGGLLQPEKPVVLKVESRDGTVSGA
Sequence of P-glycoprotein (P08183 whole entry): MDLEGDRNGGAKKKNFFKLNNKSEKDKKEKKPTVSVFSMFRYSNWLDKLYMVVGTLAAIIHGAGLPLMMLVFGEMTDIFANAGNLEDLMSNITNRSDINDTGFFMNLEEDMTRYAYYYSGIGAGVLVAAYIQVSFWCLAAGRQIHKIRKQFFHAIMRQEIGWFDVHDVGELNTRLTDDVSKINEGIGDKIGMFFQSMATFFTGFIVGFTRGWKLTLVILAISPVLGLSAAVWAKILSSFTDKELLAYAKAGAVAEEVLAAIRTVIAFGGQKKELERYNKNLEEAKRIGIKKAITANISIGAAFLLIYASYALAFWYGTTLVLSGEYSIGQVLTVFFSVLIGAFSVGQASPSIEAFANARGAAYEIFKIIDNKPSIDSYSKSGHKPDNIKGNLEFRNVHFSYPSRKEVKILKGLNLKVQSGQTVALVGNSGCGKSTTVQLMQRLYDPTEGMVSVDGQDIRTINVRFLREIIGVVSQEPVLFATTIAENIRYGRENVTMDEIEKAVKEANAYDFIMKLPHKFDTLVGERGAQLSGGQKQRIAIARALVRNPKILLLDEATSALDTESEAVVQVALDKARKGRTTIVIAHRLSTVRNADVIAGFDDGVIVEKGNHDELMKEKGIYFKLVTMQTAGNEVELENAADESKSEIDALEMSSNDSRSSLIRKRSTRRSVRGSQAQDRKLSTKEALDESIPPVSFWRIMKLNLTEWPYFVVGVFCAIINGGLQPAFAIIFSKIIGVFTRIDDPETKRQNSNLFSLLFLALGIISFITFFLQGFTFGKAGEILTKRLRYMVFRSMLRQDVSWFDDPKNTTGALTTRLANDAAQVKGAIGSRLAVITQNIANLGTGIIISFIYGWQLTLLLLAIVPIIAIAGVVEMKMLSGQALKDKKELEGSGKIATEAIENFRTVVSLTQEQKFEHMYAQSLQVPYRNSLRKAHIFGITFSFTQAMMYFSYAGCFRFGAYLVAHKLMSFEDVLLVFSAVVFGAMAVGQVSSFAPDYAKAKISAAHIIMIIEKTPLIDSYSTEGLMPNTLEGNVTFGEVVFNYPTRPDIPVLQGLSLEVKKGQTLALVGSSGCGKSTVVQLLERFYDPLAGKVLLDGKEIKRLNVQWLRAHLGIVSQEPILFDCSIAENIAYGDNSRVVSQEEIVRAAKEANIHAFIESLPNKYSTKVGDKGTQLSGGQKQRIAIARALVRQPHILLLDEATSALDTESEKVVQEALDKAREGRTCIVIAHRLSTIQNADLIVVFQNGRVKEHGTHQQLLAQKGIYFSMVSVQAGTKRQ

| Compound | inhibition of P-glycoprotein (P-glycoprotein) | inhibition of human CYP3A4 (human CYP3A4) | effects on murine gut microbiota (murine gut microbiota) |
| --- | --- | --- | --- |
| O=C(C=CC=Cc1ccc2c(c1)OCO2)N1CCCCC1 [Piperine, 1-[5-(1,3-benzodioxol-5-yl)-1-oxo-2,4-pentadienyl]piperidine] | inhibit | inhibit |  |
| Polysorbate-80 |  |  | detrimental effects |
